Data reported in patent publication US8957083B2, “Spiro-amino-imidazolone and spiro-amino-dihydro-pyrimidinone compounds as beta-secretase modulators and methods of use” (Amgen Inc., priority 2010, dated 2015).
Read-outs that look alike come from different tables or passages of the source.

What was measured:
[1] = target: BACE 1 (Beta Secretase enzyme) (Homo sapiens (Human), UniProt P56817); test: In vitro enzymatic BACE FRET assay; assay type: biochemical; settings: enzyme 0.2 nM, FRET substrate 50 nM, pH 4.2
Experimental: In Vitro Enzymatic BACE FRET (Fluorescence Resonance Energy Transfer) Assay (Enzyme Assay Data in the Example Table I)
The assay buffer used in this screen is 0.05 M acetate, pH 4.2, 10% DMSO final, 100 uM genapol (which is a nonionic detergent, below its Critical Micelle Concentration). […] This assay is effectively started by the addition of FRET substrate (50 nM) and the combination is incubated for one hour. The FRET assay is terminated with by addition of Tris buffer, which raises the pH to neutrality, and the fluorescence is determined. The FRET substrate is a peptide with commercially available fluorophore and quencher, on opposite sides of the BACE cleavage site. Proteolytic cleavage of the FRET substrate releases quenching of fluorescence (excitation […] and […]).

[2] = system: Aβ40 in conditioned medium of cells expressing amyloid precursor protein; test: In vitro BACE cell-based assay (HEK cell assay), Aβ40 sandwich ELISA; settings: Aβ40 in supernatant after 24 h incubation
Experimental: In Vitro BACE Cell-Based Assay
The cell-based assay measures inhibition or reduction of Aβ40 in conditioned medium of test compound treated cells expressing amyloid precursor protein.
Cells stably expressing Amyloid Precursor Protein (APP) were plated at a density of 40K cells/well in 96 well plates (Costar). The cells were cultivated for 24 hours at 37° C. and 5% CO2 in DMEM supplemented with 10% FBS. The test compounds were then added to cells in 10-point dose response concentrations with the starting concentration being either 100 μM or 10 μM. The compounds were diluted from stock solutions in DMSO and the final DMSO concentration of the test compounds on cells was 0.1%. After 24 h of incubation with the test compounds the supernatant conditioned media was collected and the Aβ 40 levels were determined using a sandwich ELISA. The IC50 of the compound was calculated from the percent of control or percent inhibition of Aβ 40 as a function of the concentration of the test compound.
The sandwich ELISA to detect Aβ 40 was performed in 96 well microtiter plates, which were pre-treated with goat anti-rabbit IgG (Pierce). The capture and detecting antibody pair that were used to detect Aβ 40 from cell supernatants were affinity purified pAb40 (Biosource) and biotinylated 6E10 (Signet Labs Inc.), respectively. The optimal concentration for the pAb40 antibody was 3 μg/ml in Superblock/TBS (Pierce) that was supplemented with 0.05% Tween 20 (Sigma).
Cellular supernatants were incubated with the capture antibody for 3 h at 4° C., followed by 3 wash steps in TBS-tween (0.05%). The detecting antibody incubation was for 2 h at 4° C., again followed by the wash steps as described previously. The final readout of the ELISA is Time-Resolved Fluorescence (counts per minute) using Delfia reagents Streptavidin-Europium and Enhancement solutions (Perkin Elmer) and the Victor 2 multilabel counter (Perkin Elmer).

[3] = average IC50, read-out: BACE 1 FRET assay
[4] = average IC50, read-out: HEK cell assay
[5] = Homo sapiens, HEK293, 24 h, average IC50, read-out: HEK cell assay
[6] = class symbols, read-out: BACE 1 FRET assay (IC50 class)
[7] = Homo sapiens, HEK293, 24 h, class symbols, read-out: HEK cell assay (IC50 class)

Chain of BACE 1 (Beta Secretase enzyme) (P56817 46-501): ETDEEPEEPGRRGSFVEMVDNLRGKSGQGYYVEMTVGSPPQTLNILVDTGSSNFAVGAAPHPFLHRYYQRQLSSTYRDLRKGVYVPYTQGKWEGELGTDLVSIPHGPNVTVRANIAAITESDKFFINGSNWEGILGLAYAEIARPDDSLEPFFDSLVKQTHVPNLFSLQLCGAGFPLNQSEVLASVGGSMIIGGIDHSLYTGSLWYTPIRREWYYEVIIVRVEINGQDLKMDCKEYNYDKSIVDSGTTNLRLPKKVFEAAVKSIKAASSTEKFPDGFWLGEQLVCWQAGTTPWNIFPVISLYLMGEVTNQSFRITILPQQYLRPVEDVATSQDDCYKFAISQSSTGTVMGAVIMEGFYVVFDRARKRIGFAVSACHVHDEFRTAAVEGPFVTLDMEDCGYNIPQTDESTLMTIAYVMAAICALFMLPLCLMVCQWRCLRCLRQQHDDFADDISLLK

| Structure (SMILES) | IC50 [1, 3] | IC50 [2, 4] | IC50 [2, 5] | IC50 [1, 6] | IC50 [2, 7] |
| --- | --- | --- | --- | --- | --- |
| Cc1ccc(-c2cc(F)c3c(c2)[C@]2(N=C(N)N(C)C2=O)c2cc(-c4cccc(Cl)c4)ccc2O3)cc1 [Example 36, (4R)-2-amino-7′-(3-chlorophenyl)-4′-fluoro-1-methyl-2′-(4-methylphenyl)spiro[imidazole-4,9′-xanthen]-5(1H)-one] | 225 nM | > 10000 nM |  |  |  |
| CN1C(=O)C[C@]2(N=C1N)c1cc(-c3cccnc3F)ccc1Oc1c2cc(Cl)nc1F [Example 15, (S)-2′-amino-3-chloro-1-fluoro-7-(2-fluoropyridin-3-yl)-1′-methyl-1′H-spiro[chromeno[2,3-c]pyridine-5,4′-pyrimidin]-6′(5′H)-one] | 33.2 nM |  | 643 nM |  |  |
| CN1C(=O)CC2(N=C1N)c1cc(-c3cccnc3F)ccc1Oc1c2cc(Cl)nc1F (stereo not shown) [Example 12, 2′-amino-3-chloro-1-fluoro-7-(2-fluoropyridin-3-yl)-1′-methyl-1′H-spiro[chromeno[2,3-c]pyridine-5,4′-pyrimidin]-6′(5′H)-one] |  |  |  | 100 to 1000 nM | > 1000 nM |
| CN1C(=N)N[C@@]2(CC1=O)c1cc(Br)ccc1Oc1cnc(Cl)cc12 [Example 20-A, (S)-7-bromo-3-chloro-2′-imino-1′-methyl-2′,3′-dihydro-1′H-spiro[chromeno[2,3-c]pyridine-5,4′-pyrimidin]-6′(5′H)-one] |  |  |  | > 1000 nM | > 1000 nM |
| COc1ccc2c(c1)[C@]1(N=C(N)N(C)C1=O)c1cc(-c3cncnc3)ccc1O2 (stereo in doubt) [Example 8, 2-amino-2′-methoxy-1-methyl-7′-(pyrimidin-5-yl)spiro[imidazole-4,9′-xanthen]-5(1H)-one] | 13.4 nM |  | 108 nM |  |  |
| CN1C(=O)C[C@]2(N=C1N)c1cc(-c3cccnc3F)ccc1Oc1cnc(-c3ccnc(F)c3)cc12 [Example 21-B, (S)-7-(2-Fluoropyridin-3-yl)-3-(2-fluoropyridin-4-yl)-2′-imino-1′-methyl-2′,3′-dihydro-1′H-spiro[chromeno[2,3-c]pyridine-5,4′-pyrimidin]-6′(5′H)-one] |  |  | 99.5 nM |  |  |
| Cc1ccc(-c2cc(F)c3c(c2)[C@@]2(N=C(N)N(C)C2=O)c2cc(-c4cccc(Cl)c4)ccc2O3)cc1 [Example 37, (4S)-2-amino-7′-(3-chlorophenyl)-4′-fluoro-1-methyl-2′-(4-methylphenyl)spiro[imidazole-4,9′-xanthen]-5(1H)-one] | 2.9 nM |  | 147 nM |  |  |
| CN1C(=O)CC2(N=C1N)c1cc(-c3cccnc3F)ccc1Oc1c2cc(C2=CCCOC2)nc1F (stereo not shown) [Example 16, 2′-amino-3-(5,6-dihydro-2H-pyran-3-yl)-1-fluoro-7-(2-fluoropyridin-3-yl)-1′-methyl-1′H-spiro[chromeno[2,3-c]pyridine-5,4′-pyrimidin]-6′(5′H)-one] | 1.4 nM |  | 6.3 nM |  |  |
| Cc1ccc(-c2cc(F)c3c(c2)[C@]2(N=C(N)N(C)C2=O)c2cc(-c4cccc(Cl)c4)ccc2O3)cc1 (stereo in doubt) [Example 33, (4R)-2-amino-7′-(3-chlorophenyl)-4′-fluoro-1-methyl-2′-(4-methylphenyl)spiro[imidazole-4,9′-xanthen]-5(1H)-one, (4S)-2-amino-7′-(3-chlorophenyl)-4′-fluoro-1-methyl-2′-(4-methylphenyl)spiro[imidazole-4,9′-xanthen]-5(1H)-one] | 4.1 nM | 237 nM |  |  |  |
| COc1ccc2c(c1)[C@]1(N=C(N)N(C)C1=O)c1cc(-c3ccc(C)cc3)cc(F)c1O2 (mixture of isomers) [Example 29, (4R)-2-amino-4′-fluoro-7′-methoxy-1-methyl-2′-(4-methylphenyl)spiro[imidazole-4,9′-xanthen]-5(1H)-one and (4S)-2-amino-4′-fluoro-7′-methoxy-1-methyl-2′-(4-methylphenyl)spiro[imidazole-4,9′-xanthen]-5(1H)-one] | 13.6 nM |  | 1970 nM |  |  |
| CN1C(=O)[C@@]2(N=C1N)c1cc(-c3cccnc3F)ccc1Oc1c(F)cc(-c3ccnc(F)c3)cc12 [Example 38, (4R)-2-amino-4′-fluoro-7′-(2-fluoro-3-pyridinyl)-2′-(2-fluoro-4-pyridinyl)-1-methylspiro[imidazole-4,9′-xanthen]-5(1H)-one] |  |  | 290 nM |  |  |
| CN1C(=O)C[C@]2(N=C1N)c1cc(-c3cccnc3F)ccc1Oc1c2cc(C2=CCCOC2)nc1F [Example 17, (S)-2′-amino-3-(5,6-dihydro-2H-pyran-3-yl)-1-fluoro-7-(2-fluoropyridin-3-yl)-1′-methyl-1′H-spiro[chromeno[2,3-c]pyridine-5,4′-pyrimidin]-6′(5′H)-one] | 2.8 nM |  | 223 nM |  |  |
| CN1C(=O)C[C@]2(N=C1N)c1cc(-c3cccnc3F)ccc1Oc1c2cc(C2=CC(C)(C)OCC2)nc1F [Example 26, (S)-2′-amino-3-(6,6-dimethyl-3,6-dihydro-2H-pyran-4-yl)-1-fluoro-7-(2-fluoropyridin-3-yl)-1′-methyl-1′H-spiro[chromeno[2,3-c]pyridine-5,4′-pyrimidin]-6′(5′H)-one] | 0.6 nM |  | 5 nM |  |  |
| CC#Cc1cncc(-c2ccc3c(c2)[C@]2(N=C(N)N(C)C2=O)c2cc(C4=CCOCC4)cc(F)c2O3)c1 (stereo in doubt) [Example 30, (4R)-2-amino-2′-(3,6-dihydro-2H-pyran-4-yl)-4′-fluoro-1-methyl-7′-(5-(1-propyn-1-yl)-3-pyridinyl)spiro[imidazole-4,9′-xanthen]-5(1H)-one, (4S)-2-amino-2′-(3,6-dihydro-2H-pyran-4-yl)-4′-fluoro-1-methyl-7′-(5-(1-propyn-1-yl)-3-pyridinyl)spiro[imidazole-4,9′-xanthen]-5(1H)-one] | 0.9 nM |  | 13.7 nM |  |  |
| CN1C(=O)[C@]2(N=C1N)c1cc(-c3cccnc3F)ccc1Oc1c(F)cc(-c3ccnc(F)c3)cc12 [Example 39, (4S)-2-amino-4′-fluoro-7′-(2-fluoro-3-pyridinyl)-2′-(2-fluoro-4-pyridinyl)-1-methylspiro[imidazole-4,9′-xanthen]-5(1H)-one] |  |  | 3.1 nM |  |  |
| CN1C(=O)C[C@@]2(N=C1N)c1cc(-c3cccnc3F)ccc1Oc1c2cc(Cl)nc1F [Example 14, (R)-2′-amino-3-chloro-1-fluoro-7-(2-fluoropyridin-3-yl)-1′-methyl-1′H-spiro[chromeno[2,3-c]pyridine-5,4′-pyrimidin]-6′(5′H)-one] | 8210 nM |  | 361 nM |  |  |
| CN1C(=O)C[C@]2(N=C1N)c1cc(-c3cccnc3F)ccc1Oc1c2cc(-c2ccnc(F)c2)nc1F [Example 19, (S)-2′-amino-1-fluoro-7-(2-fluoropyridin-3-yl)-3-(2-fluoropyridin-4-yl)-1′-methyl-1′H-spiro[chromeno[2,3-c]pyridine-5,4′-pyrimidin]-6′(5′H)-one] | 1.4 nM |  | 82 nM |  |  |
| CN1C(=O)CC2(N=C1N)c1cc(-c3cccnc3F)ccc1Oc1c2cc(-c2ccnc(F)c2)nc1F (stereo not shown) [Example 18, 2′-amino-1-fluoro-7-(2-fluoropyridin-3-yl)-3-(2-fluoropyridin-4-yl)-1′-methyl-1′H-spiro[chromeno[2,3-c]pyridine-5,4′-pyrimidin]-6′(5′H)-one] | 2.4 nM |  | 71.6 nM |  |  |
| CN1C(=O)C[C@@]2(N=C1N)c1cc(-c3cccnc3F)ccc1Oc1cnc(-c3ccnc(F)c3)cc12 [Example 21-A, (R)-7-(2-Fluoropyridin-3-yl)-3-(2-fluoropyridin-4-yl)-2′-imino-1′-methyl-2′,3′-dihydro-1′H-spiro[chromeno[2,3-c]pyridine-5,4′-pyrimidin]-6′(5′H)-one] |  |  | 2380 nM |  |  |
